Laboratory results reported in US20170079281A1, “CITRUS-BASED ANTIMICROBIAL COMPOSITION” (priority 2015, published 2017).

Legend:
[1] = tested on: Salmonella typhimurium SL1344; assay: MIC by broth dilution method in 96-well microplates; type: cell-based; conditions: Mueller Hinton Broth, 24 h
[2] = tested on: Zygosaccharomyces rouxii ATCC R 995; assay: as above; type: cell-based; conditions: Mueller Hinton Broth, 24 h
[3] = tested on: Staphylococcus aureus ATCC 25923; assay: as above; type: cell-based; conditions: Mueller Hinton Broth, 24 h
Bacillus cereus L8PQ = assay: as above; type: cell-based; conditions: Mueller Hinton Broth, 24 h
Escherichia coli EDL 933 = assay: as above; type: cell-based; conditions: Mueller Hinton Broth, 24 h
[4] = tested on: Listeria monocytogenes HPB 2812; assay: as above; type: cell-based; conditions: Mueller Hinton Broth, 24 h
[5] = tested on: Aspergillus niger ATCC 1015; assay: as above; type: cell-based; conditions: Mueller Hinton Broth, 24 h
[6] = tested on: Xeromyces bisporus ATCC MY-36964; assay: as above; type: cell-based; conditions: Mueller Hinton Broth, 24 h
[7] = tested on: total aerobic microflora (TAM); assay: Accelerated shelf-life testing of strawberry fillings and puddings; type: cell-based; conditions: 0.2% by mass Composition A or 0.1% by mass sodium benzoate; 28° C., 70% RH, 35 days (Month 1 to Month 15)
Description: (§1) The shelf-life of the strawberry fillings and strawberry flavor puddings, containing 0.2% by mass Composition A or 0.1% by mass sodium benzoate, […], from a procedure by Kilcast and Persis (2000) by determining the concentration of total aerobic microflora (TAM) and yeast/molds (YM). […]; Sheldon Manufacturing Inc., Cornelius, Oreg., USA), in order to simulate an accelerated maturity of the products. A storage time of 2 weeks in these conditions corresponds to 6 months in normal conditions (20° C., 45% RH). […] Samples were homogenized for 2 min at 260 rpm in 50 mL of sterile peptone water (0.1% w/v) with a Lab-Blender™ 400 stomacher (Laboratory Equipment, London, UK). From each homogenate, serial dilutions were prepared, plated onto surface of Plate Count Agar (PCA) (Difco, BD) for TAM enumeration or PDA for YM enumeration and incubated for 24-48 h at 37° C. (resp. 28° C.) before counting.

yeast/molds (YM) = assay: as above; type: cell-based
Description: as §1

S. cerevisiae ISI107 = assay: MIC microtiter plate assay in filtered apple juice; type: cell-based, Saccharomyces cerevisiae; conditions: filtered apple juice (pH 3.59), 25° C., aerobically
[8] = has been reported; cited from earlier work

Structure (SMILES)	MIC [1]	MIC [2] [ppm]	MIC [3]	MIC (Bacillus cereus L8PQ)	MIC (Escherichia coli EDL 933)	MIC [4]	MIC [5] [ppm]	MIC [6] [ppm]	TAM concentration in strawberry fillings [7]	Yeast/Mold (Y/M) concentration in strawberry flavor puddings (yeast/molds (YM); 0.2% Composition A or 0.1% sodium benzoate, after 35 days accelerated storage, also no growth in control, data not shown)	Yeast/Mold (Y/M) concentration in strawberry fillings (yeast/molds (YM); 0.2% by mass Composition A or 0.1% by mass sodium benzoate, 28° C., 70% RH, 35 days (Month 1 to Month 15))	MIC (S. cerevisiae ISI107)	Resistance to thermal processing [8]
O=C([O-])c1ccccc1.[Na+] [Sodium benzoate, sodium benzoate]	5 185 ppm	162	5 185 ppm	5 185 ppm	10 730 ppm	5 185 ppm	648	81	total inhibition	no growth	total inhibition		
CCCCCCCCCCCC(=O)N[C@@H](CCCN=C(N)N)C(=O)OCC [lauric arginate, ethyl lauroyl arginate]												about 156 ppm	resistant to all types of thermal processing including boiling
